# Active and inactive are the calls of the source.
# Key:
# [1] = target: DNA dC->dU-editing enzyme APOBEC-3A (Homo sapiens, UniProt P31941); assay: Dose Response confirmation of small molecule APOBEC3A DNA Deaminase Inhibitors via a fluorescence-based single-stranded DNA deaminase assay. [Related pubchem assays (depositor defined):AID493011, AID493024]; type: functional
# [2] = target: DNA dC->dU-editing enzyme APOBEC-3G (Homo sapiens, UniProt Q9HC16); type: functional;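 also: Dose-response counterscreen measuring inhibition of APOBEC3G DNA deaminase activity, run while confirming APOBEC3A inhibitors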
# Chain of DNA dC->dU-editing enzyme APOBEC-3G (Q9HC16 whole entry): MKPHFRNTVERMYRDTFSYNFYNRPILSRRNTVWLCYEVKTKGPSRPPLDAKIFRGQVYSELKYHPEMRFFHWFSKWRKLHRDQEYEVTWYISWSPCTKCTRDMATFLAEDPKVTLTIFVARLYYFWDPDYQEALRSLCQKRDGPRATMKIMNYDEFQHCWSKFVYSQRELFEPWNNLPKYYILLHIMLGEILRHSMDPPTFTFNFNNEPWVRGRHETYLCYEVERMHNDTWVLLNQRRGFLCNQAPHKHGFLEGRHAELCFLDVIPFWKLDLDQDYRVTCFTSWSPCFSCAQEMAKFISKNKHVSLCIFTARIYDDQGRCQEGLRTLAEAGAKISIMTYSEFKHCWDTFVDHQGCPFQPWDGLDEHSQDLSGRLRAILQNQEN
# [3] = target: T1, Tyrosine-protein phosphatase non-receptor type 7 (Homo sapiens, UniProt P35236); assay: HePTP tyrosine phosphatase activity blockers – biochemical, absorbance, leukemia target, primary screen (AID 521); type: functional
# T1 sequence (P35236 whole entry): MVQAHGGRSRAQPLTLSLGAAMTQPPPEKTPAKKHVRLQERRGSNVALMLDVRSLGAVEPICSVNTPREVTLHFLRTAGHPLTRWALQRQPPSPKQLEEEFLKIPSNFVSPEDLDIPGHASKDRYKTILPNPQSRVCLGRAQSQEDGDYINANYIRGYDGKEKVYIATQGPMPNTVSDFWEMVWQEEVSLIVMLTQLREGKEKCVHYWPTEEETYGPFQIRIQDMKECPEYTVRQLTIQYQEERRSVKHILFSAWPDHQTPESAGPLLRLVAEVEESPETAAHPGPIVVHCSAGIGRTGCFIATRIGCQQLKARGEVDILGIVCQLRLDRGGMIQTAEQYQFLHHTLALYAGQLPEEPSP
# [4] = potency of ADAM10 substrate cleavage blockers – biochemical, QFRET, dose response (AID 743254);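 also: ADAM10 enzyme with the DM2 quenched FRET peptide as substrate; EDANS fluorescence gain as the protease cuts the substrate; inhibitor potency against ADAM10 proteolytic activity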
# [5] = target: Disintegrin and metalloproteinase domain-containing protein 17 (Homo sapiens, UniProt P78536); assay: inhibition of ADAM17 substrate cleavage – biochemical, quenched FRET substrate, counter-screen for ADAM10 exosite inhibitor project, dose response (AID 743253)
# Chain of Disintegrin and metalloproteinase domain-containing protein 17 (P78536 whole entry, the tested form may be a part): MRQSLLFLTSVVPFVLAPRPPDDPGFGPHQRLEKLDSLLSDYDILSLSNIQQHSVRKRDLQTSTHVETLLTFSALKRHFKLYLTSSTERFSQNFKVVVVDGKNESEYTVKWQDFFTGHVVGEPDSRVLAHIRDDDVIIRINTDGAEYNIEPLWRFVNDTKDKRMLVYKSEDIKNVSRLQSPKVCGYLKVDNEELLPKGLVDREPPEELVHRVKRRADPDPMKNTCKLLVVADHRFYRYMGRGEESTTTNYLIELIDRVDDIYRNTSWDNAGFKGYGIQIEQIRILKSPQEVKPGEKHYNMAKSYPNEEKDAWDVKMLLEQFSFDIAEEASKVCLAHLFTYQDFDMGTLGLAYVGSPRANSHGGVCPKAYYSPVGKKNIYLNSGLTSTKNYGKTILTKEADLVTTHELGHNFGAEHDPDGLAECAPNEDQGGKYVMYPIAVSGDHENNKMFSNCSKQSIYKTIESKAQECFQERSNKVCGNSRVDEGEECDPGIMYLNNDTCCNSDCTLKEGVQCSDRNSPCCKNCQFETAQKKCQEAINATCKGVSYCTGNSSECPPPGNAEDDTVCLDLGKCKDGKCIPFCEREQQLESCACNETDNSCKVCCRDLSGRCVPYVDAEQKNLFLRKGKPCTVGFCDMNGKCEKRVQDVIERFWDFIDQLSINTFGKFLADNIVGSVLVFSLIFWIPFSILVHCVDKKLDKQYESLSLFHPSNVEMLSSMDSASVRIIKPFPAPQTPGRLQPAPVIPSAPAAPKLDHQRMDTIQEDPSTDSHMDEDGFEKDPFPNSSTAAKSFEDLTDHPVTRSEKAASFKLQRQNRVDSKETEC
# [6] = viability of PTEN-deleted HCT116 cells – cell-based, HCT116 PTEN knockout, dose response (AID 1047); type: functional;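 also: HCT116 colon tumor cells with PTEN knocked out; cells exposed to compound for 60 hours before readout; potency for loss of cell viability measured by luminescence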
# [7] = viability of HCT116 lacking mutant beta-catenin – cell-based, human colon tumor, dose response (AID 1045); type: functional;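 also: HCT116 colon tumor cells with beta catenin knocked out; cells exposed to compound for 60 hours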
# [8] = target: Glyceraldehyde-3-phosphate dehydrogenase (Homo sapiens, UniProt P04406)
# Chain of Glyceraldehyde-3-phosphate dehydrogenase (P04406 whole entry): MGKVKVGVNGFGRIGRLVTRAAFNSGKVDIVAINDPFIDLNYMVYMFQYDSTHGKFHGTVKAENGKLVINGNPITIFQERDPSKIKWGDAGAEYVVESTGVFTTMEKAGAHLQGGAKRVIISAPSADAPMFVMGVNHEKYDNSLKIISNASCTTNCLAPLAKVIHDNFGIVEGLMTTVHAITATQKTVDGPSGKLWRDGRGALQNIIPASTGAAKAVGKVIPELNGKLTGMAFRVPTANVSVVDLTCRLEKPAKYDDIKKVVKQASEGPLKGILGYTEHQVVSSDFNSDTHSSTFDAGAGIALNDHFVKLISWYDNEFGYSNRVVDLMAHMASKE
# [9] = target: T2, Alkaline phosphatase, tissue-nonspecific isozyme (Homo sapiens, UniProt P05186); assay: potency against alkaline phosphatase TNAP – biochemical, luminescent, dose response, SAR follow-up (AID 1056)
# T2 sequence (P05186 whole entry): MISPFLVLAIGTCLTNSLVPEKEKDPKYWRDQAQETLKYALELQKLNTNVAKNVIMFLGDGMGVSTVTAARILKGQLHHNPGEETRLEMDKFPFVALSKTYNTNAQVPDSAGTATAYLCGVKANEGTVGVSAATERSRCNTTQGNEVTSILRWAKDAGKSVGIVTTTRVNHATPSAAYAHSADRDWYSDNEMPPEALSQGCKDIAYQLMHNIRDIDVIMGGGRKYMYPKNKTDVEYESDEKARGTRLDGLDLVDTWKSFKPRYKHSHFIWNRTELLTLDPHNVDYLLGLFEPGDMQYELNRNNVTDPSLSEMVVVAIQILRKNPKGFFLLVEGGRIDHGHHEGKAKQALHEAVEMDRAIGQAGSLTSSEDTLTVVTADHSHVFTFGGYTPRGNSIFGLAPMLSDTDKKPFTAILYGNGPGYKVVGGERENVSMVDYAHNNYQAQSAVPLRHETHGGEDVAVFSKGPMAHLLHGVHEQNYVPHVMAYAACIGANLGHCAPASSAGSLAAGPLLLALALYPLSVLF
# [10] = THP-1 cell cytotoxicity, dose response, cytotoxicity control for non-replicating M. tuberculosis project (AID 489025); type: functional
# [11] = A cytotoxicity screen of small molecule inhibitors of the PhoP region in Salmonella typhi identified in the primary screen. [Related pubchem assays: 1850, 1864, 1985 ]; type: functional
# [12] = target: G-protein coupled receptor 55 (Homo sapiens, UniProt Q9Y2T6); assay: inhibition of LPI-stimulated GPR55 beta-arrestin translocation – imaging, U2OS, beta-arrestin-GFP, LPI agonist, primary screen (AID 2013); type: functional;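 also: antagonist potency measured as reduced agonist-driven arrestin aggregation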
# Chain of G-protein coupled receptor 55 (Q9Y2T6 whole entry): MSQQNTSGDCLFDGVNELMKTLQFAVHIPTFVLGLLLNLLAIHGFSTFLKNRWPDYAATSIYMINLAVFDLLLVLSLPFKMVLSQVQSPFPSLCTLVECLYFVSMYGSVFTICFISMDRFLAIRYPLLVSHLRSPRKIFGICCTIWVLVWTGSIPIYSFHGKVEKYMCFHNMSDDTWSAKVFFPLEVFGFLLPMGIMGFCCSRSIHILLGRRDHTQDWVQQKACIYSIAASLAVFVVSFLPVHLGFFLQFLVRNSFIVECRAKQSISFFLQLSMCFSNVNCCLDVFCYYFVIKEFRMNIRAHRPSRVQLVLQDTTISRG
# [13] = target: T3, Calpain-2 catalytic subunit (Sus scrofa, UniProt P43367); assay: m-calpain protease blockers, concentration series – biochemical, fluorogenic peptide substrate, dose response (AID 1420); type: functional
# T3 sequence (P43367 whole entry): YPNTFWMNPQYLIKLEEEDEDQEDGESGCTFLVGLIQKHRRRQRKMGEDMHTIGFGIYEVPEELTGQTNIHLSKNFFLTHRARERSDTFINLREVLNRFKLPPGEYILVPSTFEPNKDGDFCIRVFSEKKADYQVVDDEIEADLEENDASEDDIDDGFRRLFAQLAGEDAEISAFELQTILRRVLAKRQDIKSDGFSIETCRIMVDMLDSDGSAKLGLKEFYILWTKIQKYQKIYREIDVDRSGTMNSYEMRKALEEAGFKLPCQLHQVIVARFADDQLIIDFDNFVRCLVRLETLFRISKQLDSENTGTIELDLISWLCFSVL
# [14] = Trypanosoma cruzi growth suppression in host cells – NIH3T3 host cells, beta-gal luminescence, confirmation (AID 2044); type: functional, cell-based;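 also: intracellular parasites grown in NIH/3T3 mouse fibroblasts as host cells; luminescent beta-galactosidase reporter signal from transgenic T. cruzi replicating inside host cells; inhibitors lower the luminescence signal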
# [15] = NIH3T3 cell viability loss – ATP luminescence, mouse fibroblasts, counter-screen, dose response (AID 2010); type: functional, cell-based;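 also: cells exposed to compound for about 90 hours before reading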
# [16] = target: T4, Short transient receptor potential channel 4 (Mus musculus, UniProt Q9QUQ5); assay: block of DAMGO-driven TRPC4 calcium entry – cell-based, HEK293 TRPC4/mu-opioid, Fluo-4 calcium, dose response (AID 434942); type: functional;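 also: potency of inhibitors blocking the TRPC4 calcium response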
# T4 sequence (Q9QUQ5 whole entry): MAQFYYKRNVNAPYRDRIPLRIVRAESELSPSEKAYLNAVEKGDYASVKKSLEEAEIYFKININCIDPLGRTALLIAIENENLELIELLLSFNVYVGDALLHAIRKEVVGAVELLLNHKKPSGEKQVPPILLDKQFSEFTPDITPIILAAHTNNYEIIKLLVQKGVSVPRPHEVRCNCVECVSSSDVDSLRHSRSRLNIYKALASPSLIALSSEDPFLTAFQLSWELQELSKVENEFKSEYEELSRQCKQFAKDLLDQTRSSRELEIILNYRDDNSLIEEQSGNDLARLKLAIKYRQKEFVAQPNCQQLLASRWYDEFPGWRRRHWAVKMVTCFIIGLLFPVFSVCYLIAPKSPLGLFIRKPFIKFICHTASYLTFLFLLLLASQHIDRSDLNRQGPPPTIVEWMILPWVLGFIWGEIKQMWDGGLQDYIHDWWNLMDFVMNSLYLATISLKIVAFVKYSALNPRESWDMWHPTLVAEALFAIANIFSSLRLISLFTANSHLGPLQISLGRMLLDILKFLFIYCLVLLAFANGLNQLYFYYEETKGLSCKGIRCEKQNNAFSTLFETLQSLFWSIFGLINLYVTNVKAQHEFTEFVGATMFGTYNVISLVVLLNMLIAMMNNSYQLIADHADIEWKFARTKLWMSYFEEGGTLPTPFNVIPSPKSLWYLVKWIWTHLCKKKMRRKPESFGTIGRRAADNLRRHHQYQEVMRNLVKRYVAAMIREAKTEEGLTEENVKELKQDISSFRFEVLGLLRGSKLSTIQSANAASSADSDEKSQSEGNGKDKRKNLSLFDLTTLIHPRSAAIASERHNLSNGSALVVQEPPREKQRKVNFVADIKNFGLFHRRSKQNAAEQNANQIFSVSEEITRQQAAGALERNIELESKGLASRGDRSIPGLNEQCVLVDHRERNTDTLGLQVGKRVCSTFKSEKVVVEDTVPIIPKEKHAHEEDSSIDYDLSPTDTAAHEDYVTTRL
# [17] = target: FAD-linked sulfhydryl oxidase ALR (Homo sapiens, UniProt P55789); assay: ALR-catalysed DTT oxidation blockers – biochemical, H2O2 detection, luminescence, cherry-pick, dose response (AID 493248)
# Chain of FAD-linked sulfhydryl oxidase ALR (P55789 whole entry): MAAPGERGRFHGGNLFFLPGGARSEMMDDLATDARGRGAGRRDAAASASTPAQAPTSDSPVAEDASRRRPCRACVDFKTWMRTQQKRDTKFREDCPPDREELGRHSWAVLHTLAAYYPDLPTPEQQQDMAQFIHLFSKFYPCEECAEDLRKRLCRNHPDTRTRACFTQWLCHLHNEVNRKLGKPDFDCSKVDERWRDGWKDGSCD
# [18] = viability of uninfected HEp-2 cells – cell-based, HTS, cytotoxicity control for RSV inhibitor project, dose response (AID 2410); type: functional; conditions: human respiratory syncytial virus
# Bcl-2-related protein A1 = target: T5, Bcl-2-related protein A1 (Mus musculus, UniProt Q07440); type: functional;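 also: confirmatory dose–response counterscreen on Bfl-1, used to check hits from a UBC13 polyubiquitin inhibitor campaign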
# T5 sequence (Q07440 whole entry): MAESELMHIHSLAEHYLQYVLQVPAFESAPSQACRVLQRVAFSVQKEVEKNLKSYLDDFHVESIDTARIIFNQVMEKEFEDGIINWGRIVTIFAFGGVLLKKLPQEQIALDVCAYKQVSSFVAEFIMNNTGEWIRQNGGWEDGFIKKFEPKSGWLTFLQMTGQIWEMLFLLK
# [19] = target: T6, Ubiquitin-conjugating enzyme E2 N (Homo sapiens, UniProt P61088); type: functional
# T6 sequence (P61088 whole entry): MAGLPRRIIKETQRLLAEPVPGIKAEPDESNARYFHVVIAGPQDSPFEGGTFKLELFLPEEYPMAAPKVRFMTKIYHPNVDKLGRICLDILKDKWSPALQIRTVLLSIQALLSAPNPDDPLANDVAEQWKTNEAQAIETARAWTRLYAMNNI
# [20] = target: T6, Ubiquitin-conjugating enzyme E2 N; type: functional; remark: listed apart in the source
# Prothrombin = Prothrombin (Homo sapiens, UniProt P00734); assay: Thrombin 1536 HTS Dose Response Confirmation. [Related pubchem assays: 1046 (Thrombin 1536 HTS; hits were confirmed in this assay)]; type: functional
# [21] = target: T7, Heat shock factor protein 1 (Mus musculus, UniProt P38532); assay: enhancement of HSF1-driven luciferase signal – cell-based, NIH3T3, luminescence, dose retest, confirmation (AID 435004); type: functional;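 also: stress induced by proteasome inhibitor MG132 added 30 min after compound; luciferase reporter driven by HSF1 response element in NIH3T3 cells; actives raise luminescence as potentiators of the MG132 stress response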
# T7 sequence (P38532 whole entry): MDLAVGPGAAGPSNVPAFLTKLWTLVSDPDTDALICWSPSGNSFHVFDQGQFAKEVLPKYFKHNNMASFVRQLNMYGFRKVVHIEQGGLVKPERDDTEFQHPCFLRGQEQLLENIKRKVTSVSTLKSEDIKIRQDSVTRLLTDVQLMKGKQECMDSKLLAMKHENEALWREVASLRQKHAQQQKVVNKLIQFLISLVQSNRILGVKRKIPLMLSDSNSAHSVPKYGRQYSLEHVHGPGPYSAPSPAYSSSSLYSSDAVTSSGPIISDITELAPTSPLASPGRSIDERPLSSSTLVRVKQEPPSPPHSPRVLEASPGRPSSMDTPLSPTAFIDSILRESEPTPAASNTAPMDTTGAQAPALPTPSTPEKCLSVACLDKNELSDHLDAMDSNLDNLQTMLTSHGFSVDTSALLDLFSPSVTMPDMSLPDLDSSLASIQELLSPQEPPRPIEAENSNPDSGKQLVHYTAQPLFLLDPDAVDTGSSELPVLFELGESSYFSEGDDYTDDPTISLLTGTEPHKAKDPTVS
# Chain of DNA dC->dU-editing enzyme APOBEC-3A (P31941 whole entry): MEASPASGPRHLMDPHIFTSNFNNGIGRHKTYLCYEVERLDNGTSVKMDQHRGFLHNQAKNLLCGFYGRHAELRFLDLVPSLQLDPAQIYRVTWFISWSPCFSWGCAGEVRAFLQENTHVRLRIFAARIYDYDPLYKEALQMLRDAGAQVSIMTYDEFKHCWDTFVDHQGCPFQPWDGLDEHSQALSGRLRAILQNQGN
smiles,measurement,setting,value
Nc1nc2c(s1)CCCCCCCCCC2,IC50,[1],7.08 µM (active)
same,IC50,[2],4.49 µM (active)
COc1ccc(NC(=O)CN2CCN(c3ccccc3F)CC2)cc1,IC50,[3],> 100 µM (not active)
Cc1cc(F)ccc1C(O)c1nc(-c2cccc(OCc3ccccc3)c2)c[nH]1 (stereo not given),IC50,[4],13.9 µM (inactive)
same,IC50,[5],> 69.5 µM (inactive)
COCCN(CCOC)S(=O)(=O)c1ccc(C(=O)Nc2nc3c(s2)CCc2ccccc2-3)cc1,EC50,[6],8.49 µM (active)
same,EC50,[7],13.1 µM (active)
CCCCSc1nnc(N)[nH]1,IC50,[8],> 100 µM (not active)
same,IC50,[9],> 100 µM (inactive)
CC1=NN(C(=O)c2ccc(Cn3nc(C)c(Br)c3C)cc2)C(O)(C(F)(F)F)C1 (stereo not given),CC50,[10],34 µM (active)
C=CCC[C@@H](Cc1ccc(F)cc1)C(=O)OC[C@H](Cc1c[nH]c2ccccc12)NC(=O)[C@H](CC=C)CC(=O)N(CCO)Cc1ccccc1,IC50,[4],5.38 µM (active)
same,IC50,[5],> 69.5 µM (inactive)
CC(C)(C)n1nc2c(c1NC(=O)Cc1cccs1)CSC2,EC50,[11],> 50 µM (active)
CCOc1ccccc1-n1c(SCC(=O)NC(C)(C)C)nnc1-c1ccoc1C,IC50,[3],> 100 µM (not active)
S=c1[nH]nc(CSCc2ccccc2Cl)n1C1CCCCC1,IC50,[12],3.7 µM (active)
same,IC50,[13],11.1 µM (not active)
CCN1C(NCCc2c[nH]c3ccccc23)=N[C@@H](c2ccccc2)[C@H](C(=O)OC)[C@H]1C,IC50,[1],6.29 µM (active)
same,IC50,[2],8.65 µM (active)
O=S(=O)(Nc1ccccc1I)c1cnc2ccccc2c1,IC50,[8],> 10 µM (inconclusive)
same,IC50,[9],> 10 µM (inactive)
C1=C(CCNCc2ccccc2)CCCC1,EC50,[11],> 50 µM (active)
COc1cc(CNC2CCCC2)cc(Cl)c1OCc1ccccc1F,EC50,[14],2.01 µM (active)
same,EC50,[6],19.9 µM (active)
same,EC50,[15],> 60 µM (not active)
same,EC50,[7],19.1 µM (active)
C=C(c1ccc(O)cc1)c1ccc(O)cc1,IC50,[12],1.75 µM (active)
same,EC50,[16],3.76 µM (active)
same,AC50,[17],0.205 µM (active)
COc1ccc(-c2nnc(SCC(=O)Nc3sc4c(c3C#N)CCCC4)n2-c2ccccc2)cc1,CC50,[18],9.89 µM (active)
same,EC50,[6],5.14 µM (active)
same,EC50,[7],5.75 µM (active)
c1ccc(-c2nn[nH]c2-c2ccccc2)cc1,IC50,[3],> 100 µM (not active)
O=C(C[n+]1ccc(CCSc2ccc(F)cc2)cc1)c1ccccc1,IC50,Bcl-2-related protein A1,5.2 µM (active)
same,IC50,[19],1.46 µM (active)
same,IC50,[20],1.02 µM (active)
CC(C)[N+](C)(C)CC(O)CN(c1ccccc1)c1ccccc1 (stereo not given),IC50,[1],3.2 µM (active)
same,IC50,[2],2.65 µM (active)
O=C(CC1(O)C(=O)Nc2ccc(Br)cc21)c1ccc2c(c1)OCO2 (stereo not given),EC50,[11],> 50 µM (active)
same,IC50,Prothrombin,2.3 µM (active)
same,EC50,[21],> 260 µM (inactive)
C=CCN1C(=O)C(C(C)CC)NC1=S (stereo not given),IC50,Prothrombin,> 50 µM (not active)
CCOc1cc(S(=O)(=O)Nc2cccnc2)c(OCC)cc1C,IC50,[9],2.61 µM (active)
Cc1occc1C(=O)N/N=C/C=C/c1ccccc1,EC50,[11],> 50 µM (active)
O=C1CCC(C(=O)Nc2cccc3ccccc23)N1 (stereo not given),IC50,Prothrombin,> 50 µM (not active)
C=C(C)CN(CC)C(=O)CC1C(=O)NCCN1CC(C)(C)C (stereo not given),IC50,Prothrombin,> 50 µM (not active)

# Source: ChEMBL document CHEMBL1201862, “PubChem BioAssay data set” (2004)
